In series [1] the target is T1, Serine/threonine-protein kinase PLK1 (Homo sapiens, UniProt P53350). Nature of the series: Displacement of 5-carboxyfluorescein-labeled PBD-binding peptide from PLk1 PBD (unknown origin) expressed in bacterial expression system incubated for 10 mins by fluorescence polarization assay.
Series [2] concerns HeLa. The series is described as follows: Induction of apoptosis in human Hela cells assessed as dead cells at 100 nM after 48 hrs by fluorescence microscope analysis relative to control. It is filed as functional.
For series [3], the system named is HeLa. The series is described as follows: Induction of cell cycle arrest in human Hela cells assessed as number of cells at S phase at 100 nM after 24 hrs by flow cytometry analysis (reference value: 7.86%). It is filed as functional.
In series [4] the test system is HeLa. Nature of the series: Induction of cell cycle arrest in human Hela cells assessed as number of cells at G0/G1 phase at 100 nM after 24 hrs by flow cytometry analysis (reference value: 74.14%). It counts as functional. In general terms: Flow cytometry measures light scatter and fluorescence of single cells or particles in a stream.
Series [5] is described as follows: Toxicity in Balb/c nu nu mouse xenografted with human Hela cells assessed as changed in body weight at 5 mg/kg, iv for 29 days. It counts as organism-based. The note with it: in vivo, 696 h, time 29 day.
In series [6] the test system is HeLa. The series is described as follows: Antitumor activity against human Hela cells xenografted in Balb/c nu nu mouse assessed as decrease in tumor size at 5 mg/kg, iv for 29 days. It is filed as functional, organism-based. The note with it: time 29.0 day.
Series [7] deals with HeLa. The series is described as follows: Induction of apoptosis in human Hela cells assessed as dead cells at 100 nM after 24 hrs by fluorescence microscope analysis relative to control. It is filed as functional.
Series [8] has as its system HeLa. Nature of the series: Induction of cell cycle arrest in human Hela cells assessed as number of cells at G2/M phase at 100 nM after 24 hrs by flow cytometry analysis (reference value: 18%). It is filed as functional.
The target in series [9] is T1, Serine/threonine-protein kinase PLK1. The series is described as follows: Inhibition PLK1 localization in mitotic kinetochore in human Hela cells at 200 uM after 18 hrs by immunofluorescence analysis relative to control. It counts as cell-based.
The nature of series [10]: Drug uptake in muscle of BALB/c nu/nu mouse xenografted with Hela cells using Cy5-conjugated compound at 5 mg/kg, iv measured after 48 hrs by fluorescence microscopic analysis. It is filed as ADME, organism-based, Muscle tissue. The note with it: in vivo.
Series [11] is described as follows: Drug uptake in tumor of BALB/c nu/nu mouse xenografted with Hela cells using Cy5-conjugated compound at 5 mg/kg, iv measured after 48 hrs by fluorescence microscopic analysis. The note with it: in vivo. It is filed as ADME, organism-based, Neoplasm.
Series [12] deals with HeLa. Nature of the series: Induction of apoptosis in human Hela cells assessed as dead cells at 200 uM after 24 hrs by fluorescence microscope analysis relative to control. It counts as functional.
Series [13] has as its target Serine/threonine-protein kinase PLK3 (Homo sapiens, UniProt Q9H4B4). Nature of the series: Displacement of 5-carboxyfluorescein-labeled PBD-binding peptide from PLk3 PBD (unknown origin) expressed in bacterial expression system incubated for 10 mins by fluorescence polarization assay. In general terms: In fluorescence polarisation assays a small probe gives low polarisation when free and higher when bound to something large.

Series [14] relates to HeLa. The series is described as follows: Induction of cell cycle arrest in human Hela cells assessed as number of cells at S phase at 200 uM after 24 hrs by flow cytometry analysis (reference value: 7.86%). It counts as functional.
Series [15] is described as follows: Ratio of drug uptake in BALB/c nu/nu mouse xenografted with Hela cells tumor to muscle using Cy5-conjugated compound at 5 mg/kg, iv measured after 48 hrs by fluorescence microscopic analysis. It counts as ADME, organism-based. The note with it: in vivo.
Series [16] has as its system HeLa. Nature of the series: Induction of cell cycle arrest in human Hela cells assessed as number of cells at G0/G1 phase at 200 uM after 24 hrs by flow cytometry analysis (reference value: 74.14%). It counts as functional.
The nature of series [17]: Ratio of drug uptake in BALB/c nu/nu mouse xenografted with Hela cells tumor to muscle using Cy5-conjugated compound at 5 mg/kg, iv measured after 30 hrs by fluorescence microscopic analysis. The note with it: in vivo. It counts as ADME, organism-based.
Series [18] in a line: Mean residence time in ICR mouse at 5 mg/kg, iv measured upto 24 hrs by LC/MS/MS analysis. The note with it: in vivo. It counts as ADME, organism-based.
The nature of series [19]: Ratio of drug uptake in BALB/c nu/nu mouse xenografted with Hela cells tumor to muscle using Cy5-conjugated compound at 5 mg/kg, iv measured after 24 hrs by fluorescence microscopic analysis. It is filed as ADME, organism-based. The note with it: in vivo.
Series [20] concerns HeLa. Nature of the series: Induction of cell cycle arrest in human Hela cells assessed as number of cells at G2/M phase at 200 uM after 24 hrs by flow cytometry analysis (reference value: 18%). It is filed as functional.
Series [21] in a line: Drug uptake in human Hela cells using Cy5-conjugated compound at 200 uM after 18 hrs by fluorescence microscopic analysis. It is filed as ADME, cell-based.
For a further series, the species on record is Homo sapiens. The series is described as follows: Selectivity ratio for binding affinity for PLK2 PBD (unknown origin) to binding affinity for PLK1 PBD (unknown origin).
A short description of series [22]: AUClast in ICR mouse at 5 mg/kg, iv measured upto 24 hrs by LC/MS/MS analysis. It is filed as ADME, organism-based. More on the design: route intravenous, dose 5 mg/kg, time <=24. The note with it: in vivo.
Series [23] in a line: Half life in ICR mouse at 5 mg/kg, iv measured upto 24 hrs by LC/MS/MS analysis. The note with it: in vivo. It is filed as ADME, organism-based.
In series [24] the target is T1, Serine/threonine-protein kinase PLK1. Nature of the series: Inhibition of PLK1 PBD interaction with p-Cdc25c in human Hela cells assessed as decrease in phosphorylated Cdc25c co-preciptated with GST-PLK1 PBD by pull down assay. It counts as cell-based.
Series [25] can be described thus: AUC(infinity) in ICR mouse at 5 mg/kg, iv measured upto 24 hrs by LC/MS/MS analysis. It counts as ADME, organism-based. More on the design: route intravenous, dose 5 mg/kg, time <=24. The note with it: in vivo.
Series [26] in a line: Ratio of drug uptake in BALB/c nu/nu mouse xenografted with Hela cells tumor to muscle using Cy5-conjugated compound at 5 mg/kg, iv measured after 6 hrs by fluorescence microscopic analysis. The note with it: in vivo. It counts as ADME, organism-based.
In series [27] the test system is HeLa. Nature of the series: Induction of apoptosis in human Hela cells assessed as dead cells at 200 uM after 48 hrs by fluorescence microscope analysis relative to control. It counts as functional.
Series [28] can be described thus: Volume of distribution at steady state in ICR mouse at 5 mg/kg, iv measured upto 24 hrs by LC/MS/MS analysis. It is filed as ADME, organism-based. The note with it: in vivo.
A short description of series [29]: Clearance in ICR mouse at 5 mg/kg, iv measured upto 24 hrs by LC/MS/MS analysis. It is filed as ADME, organism-based. The note with it: in vivo.

pIC50: −log10 of the molar value. Activity calls are given as the source filed them. No cut-off for these calls is given here. Non-standard residues stand in square brackets, D forms with d. Residues, ends and D or L forms follow the SMILES beside them. pT = C[C@@H](OP(=O)(O)O)[C@H](N)C(=O)O

T1 sequence (P53350 whole entry): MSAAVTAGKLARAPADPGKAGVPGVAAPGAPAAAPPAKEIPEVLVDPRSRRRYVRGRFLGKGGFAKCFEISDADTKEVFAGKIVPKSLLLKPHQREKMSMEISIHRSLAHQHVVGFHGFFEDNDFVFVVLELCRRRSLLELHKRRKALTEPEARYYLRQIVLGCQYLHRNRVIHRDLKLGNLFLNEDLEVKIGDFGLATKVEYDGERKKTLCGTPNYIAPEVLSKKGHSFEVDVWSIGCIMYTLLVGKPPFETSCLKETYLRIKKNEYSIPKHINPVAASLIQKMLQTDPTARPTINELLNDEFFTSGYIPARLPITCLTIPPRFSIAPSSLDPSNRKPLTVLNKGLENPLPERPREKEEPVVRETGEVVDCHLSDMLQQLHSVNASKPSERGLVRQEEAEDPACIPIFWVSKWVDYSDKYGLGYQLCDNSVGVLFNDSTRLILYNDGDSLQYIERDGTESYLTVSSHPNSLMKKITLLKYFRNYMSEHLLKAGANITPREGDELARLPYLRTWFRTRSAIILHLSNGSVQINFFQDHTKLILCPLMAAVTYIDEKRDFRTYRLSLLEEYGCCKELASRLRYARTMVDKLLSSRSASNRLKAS
Chain of Serine/threonine-protein kinase PLK3 (Q9H4B4 whole entry): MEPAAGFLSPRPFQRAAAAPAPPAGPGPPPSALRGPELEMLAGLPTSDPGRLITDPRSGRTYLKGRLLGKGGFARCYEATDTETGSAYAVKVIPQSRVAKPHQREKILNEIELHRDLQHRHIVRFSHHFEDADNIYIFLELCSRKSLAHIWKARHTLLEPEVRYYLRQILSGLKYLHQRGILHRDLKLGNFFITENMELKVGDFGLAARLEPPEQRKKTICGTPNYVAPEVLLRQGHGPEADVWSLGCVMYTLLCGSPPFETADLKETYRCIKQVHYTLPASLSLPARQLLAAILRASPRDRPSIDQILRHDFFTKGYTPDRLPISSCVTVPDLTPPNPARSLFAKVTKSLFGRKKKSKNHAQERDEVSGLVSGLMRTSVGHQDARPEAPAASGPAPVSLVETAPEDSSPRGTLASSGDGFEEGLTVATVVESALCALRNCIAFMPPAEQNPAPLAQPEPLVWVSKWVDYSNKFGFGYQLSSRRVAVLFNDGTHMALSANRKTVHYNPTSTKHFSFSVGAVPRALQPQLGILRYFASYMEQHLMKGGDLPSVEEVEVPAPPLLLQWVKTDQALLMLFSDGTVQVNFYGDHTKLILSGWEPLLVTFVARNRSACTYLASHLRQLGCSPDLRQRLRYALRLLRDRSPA

Take `O=C1NC(=O)C(=Cc2cn(-c3ccccc3)nc2-c2ccccc2)C(=O)N1`: the pIC50 (as a rule, the IC50 on a negative log10 scale, so that one unit is a factor of ten) in series [1] is 4.49.
Consider `O=C1NC(=O)C(=Cc2cn(Cc3cccc(OC(F)(F)F)c3)nc2-c2ccccc2)C(=O)N1`, for which the inhibition (in general, the share of the control response that was lost under treatment) in series [1] was “inactive”.
For `CC[C@@H]1C(=O)N(C)c2cnc(Nc3ccc(C(=O)NC4CCN(C)CC4)cc3OC)nc2N1C1CCCC1` [BI-2536], the Activity with HeLa [2] is on record as 91.5%; with HeLa [3] it was 9.9%; in the series with HeLa [4], 61.34%; in series [5], “Non-Toxic”; with HeLa [7] it was 31.1%; in the series on HeLa [8] it was 28.76%. Moreover, in the series on HeLa [6], the result was Active.
Turning to `O=C1NC(=O)C(=Cc2cn(CCCCc3ccccc3)nc2-c2ccccc2)C(=O)N1`, the inhibition result in series [1] was “Active”.
The same measure, in the same setting: in the case of `CSc1ccc(Cn2cc(C=C3C(=O)NC(=O)NC3=O)c(-c3ccccc3)n2)cc1` it was “inactive”; in that of `O=C1NC(=O)C(=Cc2cn(Cc3ccc(OC(F)(F)F)cc3)nc2-c2ccccc2)C(=O)N1`, “inactive”.
On to `O=C1NC(=O)C(=Cc2cn(Cc3ccccc3)nc2-c2ccccc2)C(=O)N1`, for which the pIC50 in [1] was 4.28.
As for `O=C1NC(=O)C(=Cc2cn(CCNC(=O)C3CCCCC3)nc2-c2ccccc2)C(=O)N1`, the inhibition entry in series [1] is “inactive”.
Still for that read-out and setting: in the case of `CN1C(=O)C(=Cc2cn(-c3ccccc3)nc2-c2ccccc2)C(=O)N(C)C1=O` it was “inactive”.
Consider `CS(=O)(=O)c1ccc(C(=O)NCCn2cc(C=C3C(=O)NC(=O)NC3=O)c(-c3ccccc3)n2)cc1`, for which the inhibition entry in [1] is “inactive”.
In the case of `O=C1NC(=O)C(=Cc2cn(CCNC(=O)c3ccccc3)nc2-c2ccccc2)C(=O)N1`, the inhibition entry in series [1] is “inactive”.
`CNc1ccc(C(=O)NCCn2cc(C=C3C(=O)NC(=O)NC3=O)c(-c3ccccc3)n2)cc1` gave a pIC50 in series [1] of 4.79. This compound also displayed an inhibition in series [9] of 61%. Further, the Drug uptake entry in [10], in series [11] and in [21] was “Active” throughout. The Activity with HeLa [12] is 24.6%; in the series with HeLa [14], 18.41%; in the series on HeLa [16], 54.47%; with HeLa [20], 27.12%; in series [5] it was “Non-Toxic”; in the series with HeLa [27], 71.1%. Besides, the “inhibition (INH)” value in [13] was “Not Active”. Also, the Ratio in series [15] is 4.2; in series [17], 4.11; in series [19], 3.9; in the series listed under Homo sapiens, 2; in [26], 2.1. In addition, the MRT (in general, a mean duration of stay, worked out from the concentration-time curve) in series [18] was 0.72 h. In series [22], this compound returned an AUClast of 11504.31 ng·h/mL. This compound returned a t1/2 in series [23] of 7.73 h. Moreover, the inhibition result in series [24] is “Active”. The exposure (AUC) (as a rule, concentration integrated over time) in [25] worked out at 11535.29 ng·h/mL. Moreover, the result with HeLa [6] was Active. For the same compound, in [28], the Vdss (in general, a proportionality between amount in the body and measured concentration, not a real space) stood at 0.31 L/kg. This compound yielded a CL in series [29] of 7.17 mL/min/kg.
The compound `CC[C@H](C)[C@H](NC(=O)[C@H](C)NC(=O)[C@@H](NC(=O)[C@H](CO)NC(=O)[C@H](Cc1cnc[nH]1)NC(=O)[C@H](CC(C)C)NC(=O)[C@@H]1CCCN1C(C)=O)[C@@H](C)OP(=O)(O)O)C(=O)N[C@@H](Cc1ccc(O)cc1)C(=O)N[C@@H](C)C(N)=O` (Ac-PLHS[pT]AIYA-NH2) showed a pIC50 in series [1] of 6.64.
For the compound `O=C1NC(=O)C(=Cc2cn(CCN3CCOCC3)nc2-c2ccccc2)C(=O)N1`, the negative-log IC50 (pIC50) in series [1] is 4.15.
For `CCCN1C(=O)C(=Cc2cn(-c3ccccc3)nc2-c2ccccc2)C(=O)N(CCC)C1=O`, in series [1], the inhibition entry was “inactive”.
As to `O=C1C(=Cc2cn(-c3ccccc3)nc2-c2ccccc2)C(=O)N(CCc2ccccc2)C(=O)N1CCc1ccccc1`, the inhibition entry in series [1] was “inactive”.

The values are drawn from ChEMBL document CHEMBL4699619, “Development of a Polo-like Kinase-1 Polo-Box Domain Inhibitor as a Tumor Growth Suppressor in Mice Models” (J Med Chem, 2020).
